What was measured:
E. coli LpxC = E. coli LpxC (Escherichia coli, UniProt P0A725); assay: LpxC Binding Assay (Rapid Fire MS assay); type: biochemical
[1] = test system: TLR-4 activity of A. baumannii culture supernatants; assay: TLR4 assay: TLR4 activity of A. baumannii culture supernatants in HEK-Blue-hTLR4 cells; type: cell-based; settings: Acinetobacter baumannii, HEK-Blue hTLR4, read-out: % TLR-4 activity
Method: The TLR4 assay measures activity of diluted filter-sterilized A. baumannii culture supernatants. The assay was performed as described in Lin et al, Mbio, 2012. Briefly, A. baumannii was passaged to mid log-phase in the presence of Forge LpxC inhibitors. Culture supernatants were harvested, filter-sterilized and diluted 1:1000. TLR4 activity of the supernatants was tested using HEK-Blue-hTLR4 cells (Invivogen) that carry NF-kB and AP-1 driven SEAP (secreted embryonic alkaline phosphatase) reporter gene.
Exemplary TLR4 assay data (% TLR-4 activity) for compounds in embodiments of the disclosure.

E. coli LpxC, sequence (P0A725 whole entry): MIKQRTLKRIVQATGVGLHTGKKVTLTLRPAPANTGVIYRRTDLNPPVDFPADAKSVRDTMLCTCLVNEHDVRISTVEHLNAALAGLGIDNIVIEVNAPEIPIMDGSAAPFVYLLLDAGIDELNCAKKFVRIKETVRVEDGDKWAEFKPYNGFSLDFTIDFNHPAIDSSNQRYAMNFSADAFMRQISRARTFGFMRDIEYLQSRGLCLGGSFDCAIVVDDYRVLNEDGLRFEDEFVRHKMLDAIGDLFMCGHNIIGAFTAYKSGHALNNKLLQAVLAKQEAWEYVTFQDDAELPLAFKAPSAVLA

O=c1[nH]cnc(C(CNCCF)Cc2ccc(C#Cc3ccc(CO)cc3)cc2)c1O (stereo not drawn) [Compound 195, 6-(1-((2-fluoroethyl)amino)-3-(4-((4-(hydroxymethyl)phenyl)ethynyl)phenyl)propan-2-yl)-5-hydroxypyrimidin-4(3H)-one]
IC50 (E. coli LpxC): 100 to 1000 nM
activity at 4 µg/mL [1]: 50 to 80%
activity at 8 µg/mL [1]: < 20%
activity at 16 µg/mL [1]: < 20%

COCCNC(=O)C(Cc1ccc(C#Cc2ccc(CN3CCOCC3)cc2)cc1)c1nc[nH]c(=O)c1O (stereo not drawn) [Compound 153, 2-(5-hydroxy-6-oxo-1,6-dihydropyrimidin-4-yl)-N-(2-methoxyethyl)-3-(4-((4-(morpholinomethyl)phenyl)ethynyl)phenyl) propanamide]
IC50 (E. coli LpxC): 10 to 50 nM
activity at 4 µg/mL [1]: > 80%
activity at 8 µg/mL [1]: 50 to 80%
activity at 16 µg/mL [1]: < 20%

O=C1CCCN1Cc1ccc(C#Cc2ccc(CC(CNCCF)c3nc[nH]c(=O)c3O)cc2)cc1 (stereo not drawn) [Compound 55, 6-(1-((2-fluoroethyl)amino)-3-(4-((4-((2-oxopyrrolidin-1-yl)methyl)phenyl)ethynyl)phenyl)propan-2-yl)-5-hydroxypyrimidin-4(3H)-one]
IC50 (E. coli LpxC): 10 to 50 nM
activity at 4 µg/mL [1]: > 80%
activity at 8 µg/mL [1]: 20 to 50%
activity at 16 µg/mL [1]: 20 to 50%

O=c1[nH]cnc(C(CNCCF)Cc2ccc(C#Cc3ccc(CN4CC5CCC(C4)O5)cc3)cc2)c1O (stereo not drawn) [Compound 215, 6-(1-(4-((4-((8-oxa-3-azabicyclo[3.2.1]octan-3-yl)methyl)phenyl)ethynyl)phenyl)-3-((2-fluoroethyl)amino)propan-2-yl)-5-hydroxypyrimidin-4(3H)-one]
IC50 (E. coli LpxC): 100 to 1000 nM
activity at 4 µg/mL [1]: 20 to 50%
activity at 8 µg/mL [1]: 20 to 50%
activity at 16 µg/mL [1]: < 20%

N#CC1CN(Cc2ccc(C#Cc3ccc(CC(C(=O)NCC(F)F)c4nc[nH]c(=O)c4O)cc3)cc2)C1 (stereo not drawn) [Compound 149, 3-(4-((4-((3-cyanoazetidin-1-yl)methyl)phenyl)ethynyl)phenyl)-N-(2,2-difluoroethyl)-2-(5-hydroxy-6-oxo-1,6-dihydropyrimidin-4-yl)propanamide]
IC50 (E. coli LpxC): < 10 nM

CO[C@@H]1CCN(Cc2ccc(C#Cc3ccc(CC(C(=O)NCC(F)F)c4nc[nH]c(=O)c4O)cc3)cc2)C1 (stereo partly drawn) [Compound 106, N-(2,2-difluoroethyl)-2-(5-hydroxy-6-oxo-1,6-dihydropyrimidin-4-yl)-3-(4-((4-(((R)-3-methoxypyrrolidin-1-yl)methyl)phenyl)ethynyl)phenyl) propanamide]
IC50 (E. coli LpxC): 100 to 1000 nM
activity at 4 µg/mL [1]: 50 to 80%
activity at 8 µg/mL [1]: 50 to 80%
activity at 16 µg/mL [1]: 20 to 50%

O=c1[nH]cnc(C(CNCC(F)F)Cc2ccc(C#Cc3ccc(CN4CCOCC4)cc3)cc2)c1O (stereo not drawn) [Compound 57, 6-(1-((2,2-difluoroethyl)amino)-3-(4-((4-(morpholinomethyl)phenyl)ethynyl)phenyl)propan-2-yl)-5-hydroxypyrimidin-4(3H)-one]
IC50 (E. coli LpxC): 100 to 1000 nM
activity at 4 µg/mL [1]: > 80%
activity at 8 µg/mL [1]: 50 to 80%
activity at 16 µg/mL [1]: 20 to 50%

N#CCC1CCN(Cc2ccc(C#Cc3ccc(CC(C(=O)NCC(F)F)c4nc[nH]c(=O)c4O)cc3)cc2)CC1 (stereo not drawn) [Compound 152, 3-(4-((4-((4-(cyanomethyl)piperidin-1-yl)methyl)phenyl)ethynyl)phenyl)-N-(2,2-difluoroethyl)-2-(5-hydroxy-6-oxo-1,6-dihydropyrimidin-4-yl)propanamide]
IC50 (E. coli LpxC): 100 to 1000 nM

C=CCNCC(Cc1ccc(C#Cc2ccc(CN3CCOCC3)cc2)cc1)c1nc[nH]c(=O)c1O (stereo not drawn) [Compound 56, 6-(1-(allylamino)-3-(4-((4-(morpholinomethyl)phenyl)ethynyl)phenyl)propan-2-yl)-5-hydroxypyrimidin-4(3H)-one]
IC50 (E. coli LpxC): 10 to 50 nM

Reference: patent US20200095236A1, “ANTIBACTERIAL COMPOUNDS” (FORGE THERAPEUTICS, INC., priority 2017, published 2020)
